Assay results taken from the RepoRT retention time repository (doi:10.1016/j.foodchem.2021.129757).

Legend:
Settings in all cases: stereoisomer not certain
[1] = RP, Agilent ZORBAX Eclipse XDB-C18, 100 × 2.1 mm, 1.8 µm, 50 °C, 0.4 mL/min, estimated dead time 0.55 min; A: water + 0.1% formic acid, pH 3; B: methanol + 0.1% formic acid, pH 3; gradient (min/%B) 0/2 10/100 14.5/100 14.51/2 16.5/2
[2] = RP, Agilent ZORBAX RRHD Eclipse Plus C18, 50 × 2.1 mm, 1.8 µm, 30 °C, 0.4 mL/min, estimated dead time 0.28 min; A: water + 0.1% formic acid, pH 3; B: acetonitrile + 0.1% formic acid, pH 3; gradient (min/%B) 0/1 5/10 8/25 9.1/99 10/99 12/99
[3] = RP, Agilent ZORBAX RRHD Eclipse Plus C18, 50 × 2.1 mm, 1.8 µm, 30 °C, 0.4 mL/min, estimated dead time 0.28 min; A: water + 0.1% formic acid, pH 3; B: acetonitrile + 0.1% formic acid, pH 3; gradient (min/%B) 0/1 5/10 8/25 9.1/99 10/99 12/1
[4] = Other, Phenomenex Kinetex PFP, 100 × 4.6 mm, 2.6 µm, 35 °C, 1.5 mL/min, estimated dead time 0.71 min; A: water + 0.1% trifluoroacetic acid, pH 2; B: acetonitrile + 0.1% trifluoroacetic acid, pH 2; gradient (min/%B) 0/1 7/7.5 14/7.6 17/10 18.5/12 20/12.5 24/30 25/90 25.1/1 32/1
[5] = RP, Waters Atlantis T3, 100 × 2.1 mm, 3 µm, 40 °C, 0.3 mL/min, estimated dead time 0.73 min; A: water + 0.1% trifluoroacetic acid, pH 2; B: acetonitrile + 0.1% trifluoroacetic acid, pH 2; gradient (min/%B) 0/10 1/10 6/40 7/50 8/50 14/70 16/80 20/10 25/10
[6] = RP, Phenomenex Synergi Hydro-RP, 250 × 2 mm, 4 µm, 25 °C, 0.2 mL/min, estimated dead time 2.5 min; A: water + 0.1% formic acid, pH 3; B: acetonitrile + 0.1% formic acid, pH 3; gradient (min/%B) 0/0.5 7/0.5 12/12.5 25/16.3 47/35 48/65 50/65 50.1/0.5
[7] = RP, Agilent InfinityLab Poroshell 120 EC-C18, 100 × 3 mm, 2.7 µm, 25 °C, 0.4 mL/min, estimated dead time 1.1 min; A: water + 0.1% formic acid, pH 3; B: acetonitrile + 0.1% formic acid, pH 3; gradient (min/%B) 0/5 10/25 20/40 24/90 25/90 26/5 30/5
[8] = Other, Phenomenex Kinetex PFP, 100 × 4.6 mm, 5 µm, 45 °C, 0.6 mL/min, estimated dead time 1.8 min; A: water + 0.1% trifluoroacetic acid, pH 2; B: methanol; gradient (min/%B) 0/40 20/72 21/40
[9] = RP, 150 × 2.1 mm, 2.6 µm, 40 °C, 0.35 mL/min, estimated dead time 0.94 min; A: water + 0.1% formic acid, pH 3; B: acetonitrile + 0.1% formic acid, pH 3; gradient (min/%B) 0/0 1/5 7/45 8.5/80 10.5/80 11/5 12/5
[10] = RP, 150 × 2.1 mm, 2.6 µm, 40 °C, 0.35 mL/min, estimated dead time 0.94 min; A: water + 0.1% formic acid, pH 3; B: acetonitrile + 0.1% formic acid, pH 3; gradient (min/%B) 0/0 1/0 12.5/100 14/100 14.2/0 15/0
[11] = RP, Waters ACQUITY UPLC HSS T3, 100 × 2.1 mm, 50 °C; A: water + 0.1% formic acid, pH 3; B: 30% methanol + 70% acetonitrile + 0.1% formic acid, pH 3; gradient (min/%B) 0/5 1/8 2/15 3/40 4/70 4.5/100 5/100 6.4/100 6.6/5 6.8/5 7/5
[12] = RP, Waters ACQUITY UPLC BEH C18, 100 × 2.1 mm, 1.7 µm, 65 °C, 0.4 mL/min, estimated dead time 0.55 min; A: water + 0.1% formic acid, pH 3; B: 80% acetonitrile + 20% acetone + 0.1% formic acid, pH 3; gradient (min/%B) 0/0 5/100 5.5/0 6/0
[13] = RP, Phenomenex Kinetex EVO C18, 100 × 2.1 mm, 2.6 µm, 40 °C, 0.4 mL/min, estimated dead time 0.55 min; A: water + 0.2% formic acid; B: acetonitrile + 0.2% formic acid; gradient (min/%B) 0/5 0.5/5 7/95 8/95 8.5/5 12/5
[14] = RP, Merck LiChrospher RP-18, 250 × 4 mm, 5 µm, 35 °C, 0.3 mL/min, estimated dead time 6.7 min; A: water + 0.5% formic acid; B: acetonitrile + 0.5% formic acid; gradient (min/%B) 0/5 10/5 30/15 45/20 65/20 95/54 110/63 115/5 135/5
[15] = RP, Phenomenex Luna C18, 150 × 4.6 mm, 3 µm, 25 °C, 0.5 mL/min, estimated dead time 3.2 min; A: water + 0.1% formic acid, pH 3; B: acetonitrile + 0.1% formic acid, pH 3; gradient (min/%B) 0/0 30/30 35/40 50/80 52/80 60/0 65/0
[16] = RP, Waters ACQUITY UPLC BEH Shield RP18, 150 × 2.1 mm, 1.7 µm, 40 °C, 0.4 mL/min, estimated dead time 0.83 min; A: water + 0.1% formic acid, pH 3; B: acetonitrile + 0.1% formic acid, pH 3; gradient (min/%B) 0/0 30/50 31/100 37/100 37.1/0
[17] = RP, 50 × 0.5 mm, 2.7 µm, 35 °C, 0.01 mL/min, estimated dead time 0.62 min; A: water + 0.1% formic acid, pH 3; B: acetonitrile + 0.1% formic acid, pH 3; gradient (min/%B) 0/5 12/95 14/95 16/5
[18] = RP, Waters ACQUITY UPLC BEH Shield RP18, 100 × 2.1 mm, 1.7 µm, 30 °C, 0.6 mL/min, estimated dead time 0.37 min; A: water + 0.1% formic acid, pH 3; B: acetonitrile + 0.1% formic acid, pH 3; gradient (min/%B) 0/0 2/0 7/10 22/95 22.1/0 26/0
[19] = RP, Phenomenex Luna Omega Polar C18, 100 × 2.1 mm, 1.6 µm, 40 °C, 0.5 mL/min, estimated dead time 0.44 min; A: water + 0.1% formic acid + 10 mM ammonium formate; B: acetonitrile; gradient (min/%B) 0/5 8/20 10/100 12/100 12.1/5 14/5
[20] = RP, Waters ACQUITY UPLC HSS T3, 100 × 2.1 mm, 1.8 µm, 30 °C, 0.4 mL/min, estimated dead time 0.55 min; A: water + 0.1% formic acid, pH 3; B: acetonitrile + 0.1% formic acid, pH 3; gradient (min/%B) 0/0 2/0 15/100 22/100 22.1/0 26/0
[21] = RP, Phenomenex Synergi Hydro-RP, 150 × 2 mm, 4 µm, 30 °C, 0.5 mL/min, estimated dead time 0.6 min; A: water + 0.1% formic acid, pH 3; B: acetonitrile + 0.1% formic acid, pH 3; gradient (min/%B) 0/5 1/5 35/45 40/100 45/100
[22] = RP, Merck Supelco SUPELCOSIL LC-C18, 250 × 4.6 mm, 5 µm, 40 °C, 1 mL/min, estimated dead time 2.6 min; A: water + 0.1% trifluoroacetic acid, pH 2; B: acetonitrile + 0.1% trifluoroacetic acid, pH 2; gradient (min/%B) 0/5 45/35 47/75 49/35 50/5
[23] = RP, Phenomenex Luna Omega Polar C18, 100 × 2.1 mm, 1.6 µm, 40 °C, 0.5 mL/min, estimated dead time 0.44 min; A: water + 0.5% formic acid; B: acetonitrile + 0.5% formic acid; gradient (min/%B) 0/5 3/50 3.1/100 5/100 5.1/5 7/5

| LC retention time [1] | LC retention time [2] | LC retention time [3] | LC retention time [4] | LC retention time [6] | Structure (SMILES) | other results |
| --- | --- | --- | --- | --- | --- | --- |
| 3.69 min | 2.83 min | 5.94 min | 18.8 min | – | COc1cc(CC(=O)O)ccc1O [Homovanillic acid] | LC retention time [15]: 16.4 min; LC retention time [16]: 10.3 min; LC retention time [17]: 3.03 min; LC retention time [18]: 16 min; LC retention time [19]: 4.17 min; LC retention time [7]: 6.83 min; LC retention time [20]: 8.67 min; LC retention time [21]: 10.2 min |
| – | – | – | 24.6 min | 39.6 min | O=C(CCc1ccc(O)cc1)c1c(O)cc(O)cc1OC1OC(CO)C(O)C(O)C1O (stereo not drawn) [Phloridzin] | LC retention time [16]: 14.2 min; LC retention time [22]: 30.8 min; LC retention time [20]: 9.96 min; LC retention time [5]: 8.22 min; LC retention time [14]: 81.1 min |
| – | – | – | 18.5 min | 27.6 min | O=Cc1c(O)cc(O)cc1O [Phloroglucinol aldehyde] | – |
| 5.25 min | 8.16 min | 8.13 min | 18.9 min | 37.4 min | O=C(O)c1ccccc1O [Salicylic acid] | LC retention time [16]: 12.8 min; LC retention time [20]: 10.5 min; LC retention time [14]: 81.6 min |
| – | – | – | 20.4 min | – | COc1cc2ccc(=O)oc2cc1O [Scopoletin] | LC retention time [9]: 5.8 min; LC retention time [10]: 5.86 min |
| 4.97 min | 7.99 min | 7.6 min | 22.3 min | 33 min | COc1cc(C=CC(=O)O)cc(OC)c1O [Sinapic acid] | LC retention time [15]: 25.1 min; LC retention time [23]: 2.53 min; LC retention time [16]: 11.1 min; LC retention time [9]: 2.79 min; LC retention time [22]: 23.3 min; LC retention time [17]: 4.25 min; LC retention time [12]: 2.1 min; LC retention time [10]: 2.81 min; LC retention time [18]: 12.5 min; LC retention time [19]: 7.22 min; LC retention time [7]: 9.78 min; LC retention time [20]: 9.44 min; LC retention time [21]: 15.2 min |
| – | – | – | 20.6 min | 39.1 min | COc1ccc(C(=O)O)cc1 [p-anisic acid] | – |

Continued, molecule first:

| Structure (SMILES) | LC retention time [1] | LC retention time [2] | LC retention time [3] | LC retention time [4] | LC retention time [6] | other results |
| --- | --- | --- | --- | --- | --- | --- |
| O=C(O)c1cccc(O)c1O [2,3-Dihydroxybenzoic acid] | 3.5 min | 3.99 min | 5.18 min | 9.73 min | – | LC retention time [5]: 4.79 min |
| O=C(O)c1c(O)cc(O)cc1O [2,4,6-trihydroxybenzoic acid] | – | – | – | 9.72 min | 15.9 min | – |
| O=C(O)c1ccc(O)cc1O [2,4-Dihydroxybenzoic acid] | – | 3.99 min | 5.18 min | 10.9 min | – | LC retention time [7]: 6.36 min; LC retention time [5]: 5.01 min |
| O=C(O)Cc1ccc(O)c(O)c1 [3,4-Dihydroxyphenylacetic acid] | 2.55 min | 1.47 min | 3.6 min | 15.3 min | 17 min | LC retention time [8]: 3.74 min; LC retention time [9]: 7.28 min; LC retention time [10]: 7.07 min |
| O=C(O)c1cc(O)cc(O)c1 [3,5-Dihydroxybenzoic acid] | – | 2.82 min | 4.25 min | 4.93 min | – | – |
| O=Cc1ccc(O)cc1 [4-Hydroxybenzaldehyde] | 3.42 min | 4.4 min | 5.23 min | 9.81 min | – | LC retention time [11]: 3.28 min; LC retention time [12]: 1.92 min; LC retention time [13]: 3.43 min |
| O=c1ccc2ccc(O)c(O)c2o1 [7,8-Dihydroxycoumarin] | – | – | 6.14 min | 12 min | – | LC retention time [9]: 4.64 min; LC retention time [10]: 4.84 min |
| O=C(O)c1ccccc1 [Benzoic acid] | 5.17 min | 7.28 min | 7.44 min | 15.4 min | 35.5 min | LC retention time [8]: 7.84 min; LC retention time [14]: 71.8 min |
